Experimental data as given in ChEMBL document CHEMBL3885881, “DrugMatrix”.

Organism: Rattus norvegicus
Experiment: DrugMatrix - Regimen: Daily Repeat
Type: toxicity, organism-based, Sprague-Dawley
Parameters: regimen Daily Repeat, gender Male, age 6-8 weeks
Settings: in vivo, po, route oral GAVAGE, vehicle .5 % CMC; for BASOPHIL / EOSINOPHIL / ERYTHROCYTE COUNT / HEMATOCRIT / HEMOGLOBIN / LEUKOCYTE COUNT / LYMPHOCYTE / MEAN CORPUSCULAR HEMOGLOBIN / MEAN CORPUSCULAR HEMOGLOBIN CONCENTRATION / MEAN CORPUSCULAR VOLUME / MONOCYTE / NEUTROPHIL / PLATELET COUNT: tissue Blood
[1] = 0 mg/kg, […], tissue Plasma, dose level Control, time 28 day
[2] = 30 mg/kg, 72 h, dose level M1, time 3 day
[3] = 30 mg/kg, 72 h, tissue Plasma, dose level M1, time 3 day
[4] = 30 mg/kg, 120 h, dose level M1, time 5 day
[5] = 30 mg/kg, 120 h, tissue Plasma, dose level M1, time 5 day
[6] = 300 mg/kg, 72 h, dose level High, time 3 day
[7] = 300 mg/kg, 72 h, tissue Plasma, dose level High, time 3 day
[8] = 300 mg/kg, 120 h, dose level High, time 5 day
[9] = 300 mg/kg, 120 h, tissue Plasma, dose level High, time 5 day

Cc1ccc2cc3c(ccc4ccccc43)c3c2c1CC3 [3-METHYLCHOLANTHRENE]
CHOLESTEROL [1]: 59.6 mg/dL
CREATINE PHOSPHOKINASE [1]: 121.8 u/L
CREATININE [1]: 0.6 mg/dL
GLUCOSE [1]: 143 mg/dL
LACTATE DEHYDROGENASE [1]: 87.8 u/L
LIPASE [1]: 17.4 u/L
PHOSPHORUS [1]: 8.68 mg/dL
POTASSIUM [1]: 6.02 MEQ/L
SODIUM [1]: 152.8 MEQ/L
TOTAL BILIRUBIN [1]: 0.26 mg/dL
TOTAL PROTEIN [1]: 6.92 G/DL
URIC ACID [1]: 0.52 mg/dL
BASOPHIL [2]: 0.4%
EOSINOPHIL [2]: 0.4%
ERYTHROCYTE COUNT [2]: 6.58 x10E6/uL
HEMATOCRIT [2]: 41.43%
HEMOGLOBIN [2]: 13.13 G/DL
LEUKOCYTE COUNT [2]: 12.08 x10E3/uL
LYMPHOCYTE [2]: 83.17%
MEAN CORPUSCULAR HEMOGLOBIN [2]: 20 pg
MEAN CORPUSCULAR HEMOGLOBIN CONCENTRATION [2]: 31.7 G/DL
MEAN CORPUSCULAR VOLUME [2]: 63.07 fL
MONOCYTE [2]: 2.4%
NEUTROPHIL [2]: 12.5%
PLATELET COUNT [2]: 1282.33 x10E3/uL
ALANINE AMINOTRANSFERASE [3]: 39.67 u/L
ALBUMIN [3]: 3.57 G/DL
ALKALINE PHOSPHATASE [3]: 304 u/L
ASPARTATE AMINOTRANSFERASE [3]: 67.67 u/L
BLOOD UREA NITROGEN [3]: 12.67 mg/dL
CHLORIDE [3]: 104 MEQ/L
CHOLESTEROL [3]: 97.67 mg/dL
CREATINE PHOSPHOKINASE [3]: 181.67 u/L
CREATININE [3]: 0.37 mg/dL
GLUCOSE [3]: 174.33 mg/dL
PHOSPHORUS [3]: 12.23 mg/dL
POTASSIUM [3]: 6.87 MEQ/L
SODIUM [3]: 147.67 MEQ/L
TOTAL BILIRUBIN [3]: 0.43 mg/dL
TOTAL PROTEIN [3]: 6.03 G/DL
BASOPHIL [4]: 0.43%
EOSINOPHIL [4]: 0.27%
ERYTHROCYTE COUNT [4]: 6.57 x10E6/uL
HEMATOCRIT [4]: 43.27%
HEMOGLOBIN [4]: 13.43 G/DL
LEUKOCYTE COUNT [4]: 10.87 x10E3/uL
LYMPHOCYTE [4]: 82.07%
MEAN CORPUSCULAR HEMOGLOBIN [4]: 20.43 pg
MEAN CORPUSCULAR HEMOGLOBIN CONCENTRATION [4]: 31.07 G/DL
MEAN CORPUSCULAR VOLUME [4]: 65.87 fL
MONOCYTE [4]: 2.43%
NEUTROPHIL [4]: 13.57%
PLATELET COUNT [4]: 1575.33 x10E3/uL
ALANINE AMINOTRANSFERASE [5]: 38.33 u/L
ALBUMIN [5]: 3.47 G/DL
ALKALINE PHOSPHATASE [5]: 335.67 u/L
ASPARTATE AMINOTRANSFERASE [5]: 70.67 u/L
BLOOD UREA NITROGEN [5]: 15 mg/dL
CHLORIDE [5]: 103.33 MEQ/L
CHOLESTEROL [5]: 82 mg/dL
CREATINE PHOSPHOKINASE [5]: 189.33 u/L
CREATININE [5]: 0.4 mg/dL
GLUCOSE [5]: 182 mg/dL
PHOSPHORUS [5]: 12.6 mg/dL
POTASSIUM [5]: 6.87 MEQ/L
SODIUM [5]: 148.33 MEQ/L
TOTAL BILIRUBIN [5]: 0.4 mg/dL
TOTAL PROTEIN [5]: 5.77 G/DL
BASOPHIL [6]: 0.4%
EOSINOPHIL [6]: 0.37%
ERYTHROCYTE COUNT [6]: 6.99 x10E6/uL
HEMATOCRIT [6]: 43.53%
HEMOGLOBIN [6]: 13.6 G/DL
LEUKOCYTE COUNT [6]: 10.06 x10E3/uL
LYMPHOCYTE [6]: 78.97%
MEAN CORPUSCULAR HEMOGLOBIN [6]: 19.47 pg
MEAN CORPUSCULAR HEMOGLOBIN CONCENTRATION [6]: 31.3 G/DL
MEAN CORPUSCULAR VOLUME [6]: 62.23 fL
MONOCYTE [6]: 2.83%
NEUTROPHIL [6]: 15.97%
PLATELET COUNT [6]: 1201 x10E3/uL
ALANINE AMINOTRANSFERASE [7]: 33.33 u/L
ALBUMIN [7]: 3.53 G/DL
ALKALINE PHOSPHATASE [7]: 316 u/L
ASPARTATE AMINOTRANSFERASE [7]: 60 u/L
BLOOD UREA NITROGEN [7]: 12.67 mg/dL
CHLORIDE [7]: 103.67 MEQ/L
CHOLESTEROL [7]: 97.67 mg/dL
CREATINE PHOSPHOKINASE [7]: 153 u/L
CREATININE [7]: 0.43 mg/dL
GLUCOSE [7]: 185.67 mg/dL
PHOSPHORUS [7]: 12.47 mg/dL
POTASSIUM [7]: 6.9 MEQ/L
SODIUM [7]: 147 MEQ/L
TOTAL BILIRUBIN [7]: 0.5 mg/dL
TOTAL PROTEIN [7]: 5.83 G/DL
BASOPHIL [8]: 0.55%
EOSINOPHIL [8]: 0.15%
ERYTHROCYTE COUNT [8]: 6.96 x10E6/uL
HEMATOCRIT [8]: 44.15%
HEMOGLOBIN [8]: 14.05 G/DL
LEUKOCYTE COUNT [8]: 9.75 x10E3/uL
LYMPHOCYTE [8]: 87.2%
MEAN CORPUSCULAR HEMOGLOBIN [8]: 20.2 pg
MEAN CORPUSCULAR HEMOGLOBIN CONCENTRATION [8]: 31.8 G/DL
MEAN CORPUSCULAR VOLUME [8]: 63.45 fL
MONOCYTE [8]: 2.05%
NEUTROPHIL [8]: 8.8%
PLATELET COUNT [8]: 1398 x10E3/uL
ALANINE AMINOTRANSFERASE [9]: 37 u/L
ALBUMIN [9]: 3.63 G/DL
ALKALINE PHOSPHATASE [9]: 280 u/L
ASPARTATE AMINOTRANSFERASE [9]: 66.33 u/L
BLOOD UREA NITROGEN [9]: 14.67 mg/dL
CHLORIDE [9]: 103 MEQ/L
CHOLESTEROL [9]: 112 mg/dL
CREATINE PHOSPHOKINASE [9]: 163.67 u/L
CREATININE [9]: 0.4 mg/dL
GLUCOSE [9]: 178.33 mg/dL
PHOSPHORUS [9]: 13.37 mg/dL
POTASSIUM [9]: 7.9 MEQ/L
SODIUM [9]: 147.33 MEQ/L
TOTAL BILIRUBIN [9]: 0.4 mg/dL
TOTAL PROTEIN [9]: 6.13 G/DL
